Source: patent US20070129344A1, “Bicyclic 6-alkylidene-penem beta-lactamase inhibitors and beta-lactam antibiotic combination: a broad spectrum antibiotic” (priority 2005, published 2007)
In brackets after ≈: the same amount, converted by molar mass. Where two headings read alike, the source gives them in different places.

Tests used:
Type in all cases: cell-based
[1] = test system: K. pneumoniae GC 7821 DHA 1; test: MIC microbroth dilution; β-lactamase class C; conditions: Klebsiella pneumoniae, GC7821DHA1, K. pneumoniae GC 7821, Cefepime alone, read-out: MIC
Protocol: (§1) The in vitro activities of the antibiotics were determined by the microbroth dilution method as recommended by the National Committee for Clinical Laboratory Standards (NCCLS). (NCCLS. 2000. Methods for Dilution Antimicrobial Susceptibility Tests for Bacteria That Grow Aerobically; Approved Standards: M7-A5, vol. 19. National Committee for Clinical Laboratory Standards, Villanova, Pa.). Mueller-Hinton II broth (MHBII)(BBL Cockeysville, Md.), was used for the testing procedure. […]. The plates were incubated for 18-22 hours at 35° C. in ambient air.

[2] = test system: E. cloacae PT 967 Inducible AmpC; test: MIC microbroth dilution; β-lactamase class C; conditions: Cefepime alone
Protocol: as §1

[3] = test system: K. pneumoniae GC 7824 Fox 5; test: MIC microbroth dilution; β-lactamase class C
Protocol: as §1

[4] = test system: K. pneumoniae GC 7822 Act 1; test: MIC microbroth dilution; β-lactamase class C
Protocol: as §1

[5] = test system: A. baumannii GC 7684 AmpC, AmpC; test: MIC microbroth dilution; β-lactamase class C; conditions: Cefepime alone
Protocol: as §1

[6] = test system: C. freundii GC 4164 Inducible AmpC; test: MIC microbroth dilution; β-lactamase class C; conditions: Cefepime alone
Protocol: as §1

[7] = test system: P. aeruginosa GC 3153 Inducible AmpC; test: MIC microbroth dilution; β-lactamase class C; conditions: Cefepime alone
Protocol: as §1

E. cloacae GC 1475 (P99) = test: MIC microbroth dilution; β-lactamase class C; conditions: Cefepime alone
Protocol: as §1

[8] = test system: P. aeruginosa GC 1763 AmpC-inducible; test: MIC microbroth dilution; β-lactamase class C; conditions: Cefepime alone
Protocol: as §1

[9] = test system: S. marcescens PT 696 Inducible AmpC; test: MIC microbroth dilution; β-lactamase class C; conditions: Serratia marcescens, Cefepime alone, read-out: MIC
Protocol: as §1

[10] = test system: P. aeruginosa ATCC 27853 AmpC-inducable; test: MIC microbroth dilution; β-lactamase class C
Protocol: as §1

[11] = test system: K. pneumoniae GC 7820 Act 1; test: MIC microbroth dilution; β-lactamase class C; conditions: Klebsiella pneumoniae, GC7820ACT1, K. pneumoniae GC 7820, Cefepime alone, read-out: MIC
Protocol: as §1

[12] = test system: S. marcescens GC 4132 (AmpC); test: MIC microbroth dilution; β-lactamase class C; conditions: Serratia marcescens, Cefepime alone, read-out: MIC
Protocol: as §1

[13] = test system: E. cloacae PT 1494 Inducible AmpC; test: MIC microbroth dilution; β-lactamase class C; conditions: Cefepime alone
Protocol: as §1

[14] = test system: E. aerogenes 1697-MP GC 7845 AmpC; test: MIC microbroth dilution; β-lactamase class C; conditions: E. aerogenes GC 7845, Cefepime alone
Protocol: as §1

[15] = test system: K. pneumoniae GC 7823 Fox 5; test: MIC microbroth dilution; β-lactamase class C; conditions: Klebsiella pneumoniae, GC7823FOX5, K. pneumoniae GC 7823, Cefepime alone, read-out: MIC
Protocol: as §1

E. coli GC 6539 CMY-2 = test: MIC microbroth dilution; β-lactamase class C
Protocol: as §1

[16] = test system: E. cloacae GC 1477 (AmpC); test: MIC microbroth dilution; β-lactamase class C; conditions: Enterobacter cloacae, Cefepime alone, read-out: MIC
Protocol: as §1

[17] = test system: E. cloacae GC 4142 (AmpC); test: MIC microbroth dilution; β-lactamase class C; conditions: Enterobacter cloacae, Cefepime alone, read-out: MIC
Protocol: as §1

[18] = test system: E. cloacae GC 1712 AmpC-inducible; test: MIC microbroth dilution; β-lactamase class C; conditions: Cefepime alone
Protocol: as §1

[19] = test system: P. aeruginosa GC 1764 (AmpC); test: MIC microbroth dilution; β-lactamase class C; conditions: Cefepime alone
Protocol: as §1

[20] = test system: S. marcescens GC 4145 Inducible AmpC; test: MIC microbroth dilution; β-lactamase class C; conditions: Serratia marcescens, Cefepime alone, read-out: MIC
Protocol: as §1

[21] = test system: E. cloacae GC 6991 (AmpC); test: MIC microbroth dilution; β-lactamase class C; conditions: Enterobacter cloacae, Cefepime alone, read-out: MIC
Protocol: as §1

E. coli GC 2894 (AmpC) = test: MIC microbroth dilution; β-lactamase class C; conditions: Escherichia coli, Cefepime alone, read-out: MIC
Protocol: as §1

[22] = test system: A. baumannii GC 7687 AmpC; test: MIC microbroth dilution; β-lactamase class C; conditions: Cefepime alone
Protocol: as §1

[23] = test system: S. marcescens GC 1781 (Sme-1 + AmpC); test: MIC microbroth dilution; β-lactamase class A (Cb'ase), C; conditions: Serratia marcescens, Cefepime alone, read-out: MIC
Protocol: as §1

[24] = test system: K. pneumoniae GC 7635 SHV-1, KPC2; test: MIC microbroth dilution; β-lactamase class A, A (Cb'ase); conditions: Cefepime alone
Protocol: as §1

E. coli GC 1480 OXA-1 = test: MIC microbroth dilution; β-lactamase class D; conditions: Escherichia coli, GC1480OXA1, E. coli GC 1480, Cefepime alone, read-out: MIC
Protocol: as §1

E. coli GC 1807 OXA-7 = test: MIC microbroth dilution; β-lactamase class D; conditions: Escherichia coli, GC1807OXA7, E. coli GC 1807, Cefepime alone, read-out: MIC
Protocol: as §1

[25] = test system: E. cloacae GC 7065 TEM-26, SHV-12 Amp C inducable; test: MIC microbroth dilution; β-lactamase class A (ESBL), C; conditions: Enterobacter cloacae, Cefepime alone, read-out: MIC
Protocol: as §1

[26] = test system: M. morganii GC 1617 TEM-10 + inducible AmpC; test: as above; conditions: Cefepime alone
Protocol: as §1

[27] = test system: E. aerogenes GC 7036 TEM-24, Amp C inducable; test: as above; conditions: Klebsiella aerogenes, Cefepime alone, read-out: MIC
Protocol: as §1

[28] = test system: E. cloacae GC 7052 SHV-5, Amp C inducable; test: as above; conditions: Cefepime alone
Protocol: as §1

[29] = test system: E. aerogenes GC 7039 TEM-4, Amp C inducable; test: as above; conditions: Klebsiella aerogenes, Cefepime alone, read-out: MIC
Protocol: as §1

[30] = test system: E. coli GAR 5929 TEM, OXA, Act-1, CTX (By PCR only); test: MIC microbroth dilution; β-lactamase class A, C, D; conditions: Cefepime alone
Protocol: as §1

[31] = Enterobacter cloacae, control of Compound 1 test, read-out: MIC
[32] = Cefepime alone, control of Compound 2 test
[33] = Pseudomonas aeruginosa, control of Compound 1 test, read-out: MIC

CO/N=C(\C(=O)N[C@@H]1C(=O)N2C(C(=O)[O-])=C(C[N+]3(C)CCCC3)CS[C@H]12)c1csc(N)n1 [Cefepime, reference compound]
MIC ([1]; control of Compound 1 test): 0.25 µg/mL (≈ 0.52 µM)
MIC ([1]; control of Compound 2 test): 0.06 µg/mL (≈ 0.125 µM)
MIC ([2]; control of Compound 2 test): 0.12 µg/mL (≈ 0.25 µM)
MIC [2, 31]: 0.12 µg/mL (≈ 0.25 µM)
MIC [3, 32]: 2 µg/mL (≈ 4.16 µM)
MIC ([3]; Klebsiella pneumoniae, GC7824FOX5, Cefepime alone, control of Compound 1 test, read-out: MIC): 2 µg/mL (≈ 4.16 µM)
MIC [4, 32]: >16 µg/mL
MIC ([4]; Klebsiella pneumoniae, GC7822ACT1, Cefepime alone, control of Compound 1 test, read-out: MIC): > 16 µg/mL
MIC ([5]; Acinetobacter baumannii, control of Compound 1 test, read-out: MIC): 16 µg/mL (≈ 33.3 µM)
MIC ([5]; control of Compound 2 test): 16 µg/mL (≈ 33.3 µM)
MIC ([6]; control of Compound 2 test): 1 µg/mL (≈ 2.08 µM)
MIC ([6]; Citrobacter freundii, control of Compound 1 test, read-out: MIC): 1 µg/mL (≈ 2.08 µM)
MIC ([7]; control of Compound 2 test): 16 µg/mL (≈ 33.3 µM)
MIC [7, 33]: 16 µg/mL (≈ 33.3 µM)
MIC (E. cloacae GC 1475 (P99); control of Compound 2 test): 2 µg/mL (≈ 4.16 µM)
MIC (E. cloacae GC 1475 (P99); [31]): 2 µg/mL (≈ 4.16 µM)
MIC ([8]; control of Compound 2 test): 2 µg/mL (≈ 4.16 µM)
MIC [8, 33]: 2 µg/mL (≈ 4.16 µM)
MIC ([9]; control of Compound 1 test): 0.25 µg/mL (≈ 0.52 µM)
MIC ([9]; control of Compound 2 test): 0.5 µg/mL (≈ 1.04 µM)
MIC [10, 32]: 2 µg/mL (≈ 4.16 µM)
MIC ([10]; Pseudomonas aeruginosa, ATCC27853, Cefepime alone, control of Compound 1 test, read-out: MIC): 2 µg/mL (≈ 4.16 µM)
MIC ([11]; control of Compound 1 test): 0.25 µg/mL (≈ 0.52 µM)
MIC ([11]; control of Compound 2 test): 0.5 µg/mL (≈ 1.04 µM)
MIC ([12]; control of Compound 1 test): 0.5 µg/mL (≈ 1.04 µM)
MIC ([12]; control of Compound 2 test): 2 µg/mL (≈ 4.16 µM)
MIC ([13]; control of Compound 2 test): 0.25 µg/mL (≈ 0.52 µM)
MIC [13, 31]: 0.25 µg/mL (≈ 0.52 µM)
MIC ([14]; control of Compound 2 test): 0.25 µg/mL (≈ 0.52 µM)
MIC ([14]; Klebsiella aerogenes, control of Compound 1 test, read-out: MIC): 0.25 µg/mL (≈ 0.52 µM)
MIC ([15]; control of Compound 1 test): 0.5 µg/mL (≈ 1.04 µM)
MIC ([15]; control of Compound 2 test): 1 µg/mL (≈ 2.08 µM)
MIC (E. coli GC 6539 CMY-2; [32]): 2 µg/mL (≈ 4.16 µM)
MIC (E. coli GC 6539 CMY-2; Escherichia coli, GC6539CMY2, Cefepime alone, control of Compound 1 test, read-out: MIC): 2 µg/mL (≈ 4.16 µM)
MIC ([16]; control of Compound 1 test): 4 µg/mL (≈ 8.32 µM)
MIC ([16]; control of Compound 2 test): 2 µg/mL (≈ 4.16 µM)
MIC ([17]; control of Compound 1 test): > 16 µg/mL
MIC ([17]; control of Compound 2 test): 8 µg/mL (≈ 16.6 µM)
MIC ([18]; control of Compound 2 test): 0.12 µg/mL (≈ 0.25 µM)
MIC [18, 31]: 0.12 µg/mL (≈ 0.25 µM)
MIC ([19]; control of Compound 2 test): 8 µg/mL (≈ 16.6 µM)
MIC [19, 33]: 8 µg/mL (≈ 16.6 µM)
MIC ([20]; control of Compound 1 test): 1 µg/mL (≈ 2.08 µM)
MIC ([20]; control of Compound 2 test): 0.5 µg/mL (≈ 1.04 µM)
MIC ([21]; control of Compound 1 test): 0.5 µg/mL (≈ 1.04 µM)
MIC ([21]; control of Compound 2 test): 1 µg/mL (≈ 2.08 µM)
MIC (E. coli GC 2894 (AmpC); control of Compound 1 test): 2 µg/mL (≈ 4.16 µM)
MIC (E. coli GC 2894 (AmpC); control of Compound 2 test): 4 µg/mL (≈ 8.32 µM)
MIC ([22]; Acinetobacter baumannii, GC7687AMPC, control of Compound 1 test, read-out: MIC): 16 µg/mL (≈ 33.3 µM)
MIC ([22]; control of Compound 2 test): 16 µg/mL (≈ 33.3 µM)
MIC ([23]; control of Compound 1 test): 0.25 µg/mL (≈ 0.52 µM)
MIC ([23]; control of Compound 2 test): 0.06 µg/mL (≈ 0.125 µM)
MIC ([24]; control of Compound 2 test): >16 µg/mL
MIC ([24]; Klebsiella pneumoniae, control of Compound 1 test, read-out: MIC): > 16 µg/mL
MIC (E. coli GC 1480 OXA-1; control of Compound 1 test): 4 µg/mL (≈ 8.32 µM)
MIC (E. coli GC 1480 OXA-1; control of Compound 2 test): 2 µg/mL (≈ 4.16 µM)
MIC (E. coli GC 1807 OXA-7; control of Compound 1 test): 0.12 µg/mL (≈ 0.25 µM)
MIC (E. coli GC 1807 OXA-7; control of Compound 2 test): 0.25 µg/mL (≈ 0.52 µM)
MIC ([25]; control of Compound 1 test): 4 µg/mL (≈ 8.32 µM)
MIC ([25]; control of Compound 2 test): 16 µg/mL (≈ 33.3 µM)
MIC ([26]; control of Compound 2 test): 0.25 µg/mL (≈ 0.52 µM)
MIC ([26]; Morganella morganii, control of Compound 1 test, read-out: MIC): 0.25 µg/mL (≈ 0.52 µM)
MIC ([27]; control of Compound 1 test): 2 µg/mL (≈ 4.16 µM)
MIC ([27]; control of Compound 2 test): 4 µg/mL (≈ 8.32 µM)
MIC ([28]; control of Compound 2 test): 16 µg/mL (≈ 33.3 µM)
MIC [28, 31]: 16 µg/mL (≈ 33.3 µM)
MIC ([29]; control of Compound 1 test): 16 µg/mL (≈ 33.3 µM)
MIC ([29]; control of Compound 2 test): > 16 µg/mL
MIC ([30]; control of Compound 2 test): >16 µg/mL
MIC ([30]; Escherichia coli, control of Compound 1 test, read-out: MIC): > 16 µg/mL
